According to PubChem BioAssay (NCI):
“And” between values parts separate entries of the source, which are not always exact repeats. Identical values can stand only once.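 Method: 48-hour compound exposure of cells in 96-well plates, five concentrations, linear interpolation of endpoints. Here, GI50 denotes the concentration required for 50% inhibition of growth. TGI is the concentration that stops growth completely.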

Key:
Assay in all cases: NCI tumour cell line growth inhibition, 48 h
[1] = tested on: A498 renal
[2] = tested on: HT29 colon
[3] = tested on: RPMI-8226 leukemia
[4] = tested on: SK-MEL-28 melanoma
[5] = tested on: SNB-19 CNS
[6] = tested on: TK-10 renal
[7] = tested on: UACC-257 melanoma
[8] = tested on: HOP-92 NSCLC
[9] = tested on: SK-OV-3 ovarian

| Structure (SMILES) | TGI [1] | TGI [2] | TGI [3] | TGI [4] | TGI [5] | TGI [6] | TGI [7] | TGI [8] | TGI [9] | GI50 [8] | GI50 [2] | GI50 [4] | GI50 [9] | GI50 [5] | GI50 [6] | GI50 [7] | GI50 [1] | GI50 [3] |
| --- | --- | --- | --- | --- | --- | --- | --- | --- | --- | --- | --- | --- | --- | --- | --- | --- | --- | --- |
| CCOC(=O)[C@H]1Nc2ccc(C)cc2C2c3ccccc3CC21 (some centres not stated) | > 100 µM | > 100 µM | > 100 µM | > 100 µM | > 100 µM | > 100 µM | > 100 µM |  |  |  |  |  |  |  |  |  |  |  |
| N#Cc1cnsc1 | > 100 µM | > 100 µM | > 100 µM | > 100 µM |  | > 100 µM | > 100 µM | > 100 µM | > 100 µM |  |  |  |  |  |  |  |  |  |
| O=C(/C=C/c1ccccc1Cl)c1ccccc1Cl | > 100 µM | 41.3 µM | 44.7 µM | 36.5 µM | 32.8 µM | > 100 µM | 60.4 µM | 77.2 µM | > 100 µM |  |  |  |  |  |  |  |  |  |
| COC(=O)CSc1n[nH]c(-c2ccc(O)c([N+](=O)[O-])c2)n1 | > 100 µM | > 100 µM | > 100 µM | > 100 µM | > 100 µM | > 100 µM | > 100 µM | > 100 µM |  |  |  |  |  |  |  |  |  |  |
| CCN(CC)C(=O)C/C(C)=N/NC(=O)c1ccncc1 |  | > 100 µM | > 100 µM | > 100 µM |  | > 100 µM | > 100 µM | > 100 µM | > 100 µM |  |  |  |  |  |  |  |  |  |
| COC(=O)C(=O)C(C(=O)C(=O)Nc1ccc(C)cc1C)c1nc2ccccc2[nH]c1=O (configuration not stated) | 58.8 µM | > 100 µM | > 100 µM | > 100 µM | > 100 µM | > 100 µM | > 100 µM |  | > 100 µM |  |  |  |  |  |  |  |  |  |
| CCCCn1c(-c2ccc(C(=O)O/N=C(\N)c3ccc(OC)cc3)cc2)nc(-c2ccccc2)c1-c1ccccc1 |  | > 100 µM |  | > 100 µM | 5.01 µM | 3.38 µM | > 100 µM | 2.41 µM | > 100 µM | 0.816 µM | 2.9 µM | 2.75 µM | 3.76 µM | 1.91 µM | 1.76 µM | 3.61 µM |  |  |
| COc1ccc(C(=O)O)c(Cc2cccc3ccccc23)c1 |  | > 100 µM |  | > 100 µM | > 100 µM | > 100 µM | > 100 µM |  | > 100 µM |  |  |  |  |  |  |  |  |  |
| C#CC[C@]12CC(=O)CC[C@H]1CC(=O)C2 | > 100 µM |  | > 100 µM | > 100 µM | > 100 µM | > 100 µM | > 100 µM |  | > 100 µM |  |  |  |  |  |  |  |  |  |
| CC(=O)SCCC1c2[nH]c3ccccc3c2CCN1O (configuration not stated) |  | > 100 µM | > 100 µM | > 100 µM | > 100 µM | > 100 µM | > 100 µM | > 100 µM | > 100 µM |  |  |  |  |  |  |  |  |  |
| O=C(NC1CCCCCC1)C1C(=O)N(C2CCCCCC2)C(=O)/C1=N\O (configuration not stated) | 80.4 µM | 94.2 µM | 83.3 µM | 87 µM | > 100 µM | 94.3 µM | > 100 µM | 46.1 µM | > 100 µM |  |  |  |  |  |  |  |  |  |
| O=C(CC(=O)N1N=C(c2ccccc2)C(N=Nc2ccc(Cl)cc2)C1=O)Nc1ccccc1Cl (configuration not stated) |  | > 100 µM | > 100 µM | 52.4 µM | 61 µM | 38.1 µM |  |  | 40.4 µM |  |  |  |  |  |  |  |  |  |
| Cc1ccc(C(=O)/C=C/c2ccccc2O)c(C)c1 | > 100 µM | 8.42 µM | > 100 µM | > 100 µM | > 100 µM | > 100 µM | > 100 µM | > 100 µM | > 100 µM |  |  |  |  |  |  |  |  |  |
| CCc1cccc(C)c1NC(C)=O | > 100 µM | > 100 µM | > 100 µM | > 100 µM |  | > 100 µM | > 100 µM |  | > 100 µM |  |  |  |  |  |  |  |  |  |
| Nc1c(-c2ccc(Br)cc2)[n+]([O-])c2ccccc2[n+]1[O-] | > 100 µM | > 100 µM | 78.3 µM | > 100 µM | > 100 µM |  | > 100 µM | > 100 µM | > 100 µM |  |  |  |  |  |  |  |  |  |
| CCOC(=O)c1c(C)n(Cc2ccc(OC)cc2)c2c1cc(O)c1[nH]c3c(c12)CCCC3 | 60.6 µM | > 100 µM | 58 µM | > 100 µM | 65.2 µM | 52.9 µM | 9.66 µM | 55.4 µM | 51.3 µM | 2.5 µM | 12.9 µM | 10.7 µM | 9.47 µM | 4.84 µM | 12.5 µM | 1.77 µM | 21.3 µM | 3.78 µM |
| COC(=O)C1=C(c2ccc3c(c2)OCO3)O[C@H](c2ccc3c(c2)OCO3)[C@H]1COC(C)=O | 59.6 µM | > 100 µM | > 100 µM | > 100 µM |  | > 100 µM | > 100 µM | > 100 µM | > 100 µM |  |  |  |  |  |  |  |  |  |

| Structure (SMILES) | TGI [1] | TGI [2] | TGI [3] | TGI [4] | TGI [5] | TGI [6] | TGI [7] | TGI [8] | TGI [9] | GI50 [8] | GI50 [2] | GI50 [4] | GI50 [9] | GI50 [5] | GI50 [6] | GI50 [7] | GI50 [1] | GI50 [3] |
| --- | --- | --- | --- | --- | --- | --- | --- | --- | --- | --- | --- | --- | --- | --- | --- | --- | --- | --- |
| NC1C2(CCCCCC2)NC(=O)C12CCCCCC2 (configuration not stated) | > 100 µM | > 100 µM |  | > 100 µM | > 100 µM | > 100 µM | > 100 µM | > 100 µM | > 100 µM |  |  |  |  |  |  |  |  |  |
| NCCCNCCSSCCCCS(=O)O | > 100 µM | > 100 µM | > 100 µM | 55.2 µM | > 100 µM | > 100 µM | 78.5 µM | > 100 µM | > 100 µM |  |  |  |  |  |  |  |  |  |
| Cc1cc(NS(=O)(=O)c2ccc(NC(=O)c3cccc4c(=O)c5ccccc5[nH]c34)cc2)no1 | 79 µM | > 100 µM | > 100 µM | > 100 µM | > 100 µM | > 100 µM | > 100 µM | > 100 µM | 72.7 µM |  |  |  |  |  |  |  |  |  |
| N#CCCN(c1ccc(/C=C2\N=C(c3ccc(Cl)cc3)OC2=O)cc1)S(=O)(=O)c1ccccc1 | > 100 µM | > 100 µM | > 100 µM | > 100 µM | > 100 µM | > 100 µM | > 100 µM |  | > 100 µM |  |  |  |  |  |  |  |  |  |
| COc1cc(Cc2cc(OC)c(OC)c(OC)c2)ccc1O |  | > 100 µM | > 100 µM | > 100 µM | > 100 µM | > 100 µM | > 100 µM | > 100 µM | > 100 µM |  |  |  |  |  |  |  |  |  |
| Cc1ccc(NC(=O)C2C(=O)N(c3ccc(C)c(C)c3)C(=O)/C2=N/O)cc1C (configuration not stated) | > 100 µM | > 100 µM | > 100 µM | > 100 µM | > 100 µM | > 100 µM | > 100 µM | > 100 µM | > 100 µM |  |  |  |  |  |  |  |  |  |
| Cc1ccc(N=NC(C(=O)c2ccccc2)C(=O)c2ccccc2)cc1 | > 100 µM | 62.2 µM | 67.4 µM | > 100 µM | 86.4 µM | > 100 µM | > 100 µM | 41.5 µM | 96 µM |  |  |  |  |  |  |  |  |  |
| COC(=O)c1cc2c(c(C(=O)OC)c1O)C(=O)C=CC2=O | > 55.8 µM | > 9.1 µM and 38.5 µM | > 9.1 µM and 5.6 µM | > 58.1 µM | > 60.7 µM | > 54.6 µM | > 48.7 µM | > 21.9 µM | > 100 µM |  | 18.4 µM | > 9.1 µM | > 9.1 µM | > 9.1 µM | > 9.1 µM | > 9.1 µM | > 9.1 µM | 1.79 µM |
| CC#CC(=O)Nc1ccccc1CC(c1c[nH]c2ccccc12)c1c[nH]c2ccccc12 |  | 42.5 µM | 58.1 µM | 29.9 µM | 45.6 µM | 92.3 µM | 57.4 µM |  | 59.3 µM |  |  |  |  |  |  |  |  |  |
| CN(C)C(=S)/N=c1\ss/c(=N\C(=S)N(C)C)n1-c1ccc2c(c1)OCO2 | > 100 µM |  |  | > 100 µM | > 100 µM | > 100 µM | > 100 µM |  | > 100 µM |  |  |  |  |  |  |  |  |  |
| CCOC(=O)NC(=O)c1cn(CCCOC(=O)NCCCCCCNC(=O)OCCCn2c(=O)c(C(=O)NC(=O)OCC)cn(C)c2=O)c(=O)n(C)c1=O | > 100 µM | > 100 µM | > 100 µM | > 100 µM |  | > 100 µM | > 100 µM | > 100 µM | > 100 µM |  |  |  |  |  |  |  |  |  |
| O=C1C2=C(CC3C(C2)C3(Br)Br)C(=O)C2=C1CC1C(C2)C1(Br)Br (configuration not stated) | > 100 µM | > 100 µM |  | > 100 µM | > 100 µM | > 100 µM | > 100 µM | > 100 µM | > 100 µM |  |  |  |  |  |  |  |  |  |
| CCC(C)(O)c1cn(-c2cccc(S(=O)(=O)O)c2)nn1 (configuration not stated) | > 100 µM | > 100 µM | > 100 µM | > 100 µM | > 100 µM | > 100 µM | > 100 µM | > 100 µM | > 100 µM |  |  |  |  |  |  |  |  |  |
| CC(=O)c1ccc(NC(=O)/C(Cc2ccccn2)=N/NC(=O)C[N+](C)(C)C)cc1 | > 100 µM | > 100 µM | > 100 µM | > 100 µM | > 100 µM | > 100 µM | > 100 µM |  | > 100 µM |  |  |  |  |  |  |  |  |  |
| CC(C)=CC(=O)N1CCN(C(=O)C=C(C)C)CC1 | > 100 µM | > 100 µM | > 100 µM | > 100 µM | > 100 µM | > 100 µM | > 100 µM | > 100 µM | > 100 µM |  |  |  |  |  |  |  |  |  |
| CC(=O)NC(CCCN)C(=O)NCc1ccccc1 (configuration not stated) | > 100 µM | > 100 µM | > 100 µM | > 100 µM | > 100 µM | > 100 µM | > 100 µM | > 100 µM | > 100 µM |  |  |  |  |  |  |  |  |  |
| COc1ccc(OC)c(/C=C/NC=O)c1 | > 100 µM | > 100 µM | > 100 µM | > 100 µM | > 100 µM | > 100 µM | > 100 µM | > 100 µM | > 100 µM |  |  |  |  |  |  |  |  |  |
